# In patent US20080167332A1, “Novel Compounds 243” (priority 2006, published 2008):
# Counter-ions that a name gives are not always drawn.
# Molecular target: T1, recombinant human CCR1 (Homo sapiens, UniProt P32246)
# T1 construct: expressed in transfected cells; membranes
# T1 sequence (P32246 1-355): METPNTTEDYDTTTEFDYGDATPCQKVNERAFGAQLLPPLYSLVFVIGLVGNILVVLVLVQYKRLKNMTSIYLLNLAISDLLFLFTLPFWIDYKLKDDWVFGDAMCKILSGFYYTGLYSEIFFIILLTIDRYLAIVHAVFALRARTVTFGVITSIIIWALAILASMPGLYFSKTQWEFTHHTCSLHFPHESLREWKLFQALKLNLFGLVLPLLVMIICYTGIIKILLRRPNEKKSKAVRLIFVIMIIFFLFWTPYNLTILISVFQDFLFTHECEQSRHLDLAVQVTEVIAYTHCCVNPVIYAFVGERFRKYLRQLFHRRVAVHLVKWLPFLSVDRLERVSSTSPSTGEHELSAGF
# Assay: Human CCR1 binding assay ([125I] MIP-1α displacement)
# Conditions: displacement of 33 pM [125I] MIP-1α, HEK-CCR1 membranes; read-out: Result from assay: IC50
# Experimental: HEK293 cells, from ECACC, stably expressing recombinant human CCR1 (HEK-CCR1) were used to prepare cell membranes containing CCR1. The membranes were stored at −70° C. The concentration of membranes of each batch was adjusted to 10% specific binding of 33 pM [^125I] MIP-1α.
# 100 μL of HEK-CCR1 membranes diluted in assay buffer pH 7.4 ((137 mM NaCl (Merck, Cat No 1.06404), 5.7 mM Glucose (Sigma, Cat No G5400), 2.7 mM KCl (Sigma, Cat No P-9333), 0.36 mM NaH2PO4×H2O (Merck, Cat No 1.06346), 10 mM HEPES (Sigma, Cat No H3375), 0.1% (w/v) Gelatine (Sigma, Cat No G2625)) with the addition of 17500 units/L Bacitracin (Sigma, Cat No B1025) were added to each well of the 96 well filter plate (0.45 μm opaque Millipore cat no MHVB N4550). 12 μL of compound in assay buffer, containing 10% DMSO, was added to give final compound concentrations of 1×10^−5.5−I×10^−9.5 M. 12 μL cold human recombinant MIP-1α (270-LD-050, R&D Systems, Oxford, UK), 10 nM final concentration in assay buffer supplemented with 10% DMSO, was included in certain wells (without compound) as non-specific binding control (NSB). 12 μL assay buffer with 10% DMSO was added to certain wells (without compound) to detect maximal binding (B0).
# 12 μL [^125I] MIP-1α, diluted in assay buffer to a final concentration in the wells of 33 pM, was added to all wells. The plates with lid were then incubated for 1.5 h at room temperature. After incubation the wells were emptied by vacuum filtration (MultiScreen Resist Vacuum Manifold system, Millipore) and washed once with 200 μL assay buffer. After the wash, all wells received an addition of […] of scintillation fluid (OptiPhase “Supermix”, Wallac Oy, Turko, Finland). Bound [^125I] MIP-1α was measured using a Wallac Trilux 1450 MicroBeta counter. Window settings: Low 5-High 1020, 1-minute counting/well.
# The following equation was used to calculate percent displacement.
# Percent displacement=1−((cpm test−cpm NSB)/(cpm B0−cpm NSB)) where:
# cpm test=average cpm in wells with membranes and compound and [^125I] MIP-1α; NSB=average cpm in the wells with membranes and MIP-1α and [^125I] MIP-1α (non-specific binding); B0=average cpm in wells with membranes and assay buffer and [^125I] MIP-1α (maximum binding).
# The molar concentration of compound producing 50% displacement (IC50) was derived using the Excel-based program XLfit (version 2.0.9) to fit data to a 4-parameter logistics function.
row,Structure (SMILES),IC50
1,CNC(=O)c1cc(Cl)c(OCC(=O)O)cc1OC[C@@H](O)CN1CCC2(CC1)Cc1cc(Cl)ccc1O2 [Example 4],20.2 nM
2,"CN(C)C(=O)c1cc(Cl)c(OCC(=O)O)cc1OC[C@@H](O)CN1CCC2(CC1)Cc1cc(Cl)ccc1O2 [Example 18, {2-Chloro-5-{[(2S)-3-(5-chloro-1′H,3H-spirol[1-benzofuran-2,4′-piperidin]-1′-yl)-2-hydroxypropyl]oxy}-4-[(dimethylamino)carbonyl]phenoxy}acetic acid]",11.4 nM
3,"O=C(O)COc1cc(OC[C@@H](O)CN2CCC3(CC2)Cc2cc(Cl)ccc2O3)c(C(=O)N2CC[C@H](O)C2)cc1Cl [Example 20, (2-Chloro-5-{[(2S)-3-(5-chloro-1′H,3H-spiro[1-benzofuran-2,4′-piperidin]-1′-yl)-2-hydroxypropyl]oxy}-4-{[(3S)-3-hydroxypyrrolidin-1-yl]carbonyl}phenoxy)acetic acid]",2.02 nM
4,"CN(C)C(=O)c1cc(Cl)c(OC(C)(C)C(=O)O)cc1OC[C@@H](O)CN1CCC2(CC1)Cc1cc(Cl)ccc1O2 [Example 19, 2-{2-Chloro-5-{[(2S)-3-(5-chloro-1′H, 3H-spiro[l-benzofuran-2,4′-piperidin]-1′-yl)-2-hydroxypropyl]oxy}-4-[(dimethylamino)carbonyl]-phenoxy}-2-methylpropanoic acid]",1.6 nM
5,"CNC(=O)c1cc(Cl)c(OC(C)(C)C(=O)O)cc1OC[C@@H](O)CN1CCC2(CC1)Cc1cc(Cl)cc(C(C)(C)C)c1O2 [Example 22, 2-[5-{[(2S)-3-(7-tert-Butyl-5-chloro-1′H, 3H-spiro[1-benzofuran-2,4′-piperidin]-1′-yl)-2-hydroxypropyl]oxy}-2-chloro-4-(methylcarbamoyl)phenoxy]-2-methylpropanoic acid]",71.7 nM
6,"CNC(=O)c1cc(Cl)c(OC(C)(C)C(=O)O)cc1OC[C@H](O)CN1CCC2(CC1)Cc1cc(Cl)ccc1O2 [Example 6, 2-{2-Chloro-5-{[(2R)-3-(5-chloro-1′H,3H-spiro[1-benzofuran-2,4′-piperidin]-1′-yl)-2-hydroxypropyl]oxy}-4-[(methylamino)carbonyl]phenoxy}-2-methylpropanoic acid]",11 nM
7,"CC(=O)Nc1ccc(OCC(=O)O)cc1OC[C@@H](O)CN1CCC2(CC1)Cc1cc(Cl)ccc1O2 [Example 2, (4-(acetylamino)-3-{[(2S)-3-(5-chloro-1′H,3H-spiro[1-benzofuran-2,4′-piperidin]-1′-yl)-2-hydroxypropyl]oxy}phenoxy)acetic acid]",10 nM
8,"CNC(=O)c1cc(Cl)c(OC(C)(C)C(=O)O)cc1OCC(O)CN1CCC2(CC1)Cc1cc(Cl)ccc1O2 (racemic) [Example 21, 2-{2-Chloro-5-{3-(5-chloro-1′H 3H-spiro[1-benzofuran-2,4′-piperidin]-1′-yl)-2-hydroxypropyl]oxy}-4-dimethylamino)carbonyl]-phenoxy}-2-methyl-propanoic acid trifluoracetate]",2.42 nM
9,"CNC(=O)c1cc(Cl)c(OC(C)(C)C(=O)O)cc1OC[C@@H](O)CN1CCC2(CC1)Cc1cc(Cl)ccc1O2 [Example 5, 2-[2-Chloro-5-{[(2S)-3-(5-chloro-1′H,3H-spiro[l-benzofuran-2,4′-piperidin]-1′-yl)-2-hydroxypropyl]oxy}-4-[(methylamino)carbonyl]-phenoxy}-2-methylpropanoic acid TFA]",1.06 nM

# Same assay, conditions: displacement of 33 pM [125I] MIP-1α, HEK-CCR1 membranes; read-out: Result from assay: pIC50 (converted)
row,Structure (SMILES),IC50
1,"CC(=O)Nc1cc(Cl)c(OCC(=O)O)cc1OC[C@@H](O)CN1CCC2(CC1)Cc1cc(Cl)ccc1O2 [Example 1, (4-(acetylamino)-2-chloro-5-{[(2S)-3-(5-chloro-1′H,3H-spiro[1-benzofuran-2,4′-piperidin]-1′-yl)-2-hydroxypropyl]oxy}phenoxy)acetic acid]",0.562 nM
2,"CC(=O)Nc1cc(Cl)c(OCC(=O)O)cc1OC[C@@H](O)CN1CCC2(CC1)Cc1cc(F)ccc1O2 [Example 3, (4-(acetylamino)-2-chloro-5-{[(2S)-3-(5-fluoro-1′H,3H-spiro[1-benzofuran-2,4′-piperidin]-1′-yl)-2-hydroxypropyl]oxy}phenoxy)acetic acid, hydrochloride]",2.24 nM

# Molecular target: T2, human ether-a-go-go-related-gene (hERG)-encoded potassium channel (Homo sapiens, UniProt Q12809)
# T2 construct: expressed in transfected cells; host or cells: HEK 293 cell membranes
# T2 sequence (Q12809 whole entry): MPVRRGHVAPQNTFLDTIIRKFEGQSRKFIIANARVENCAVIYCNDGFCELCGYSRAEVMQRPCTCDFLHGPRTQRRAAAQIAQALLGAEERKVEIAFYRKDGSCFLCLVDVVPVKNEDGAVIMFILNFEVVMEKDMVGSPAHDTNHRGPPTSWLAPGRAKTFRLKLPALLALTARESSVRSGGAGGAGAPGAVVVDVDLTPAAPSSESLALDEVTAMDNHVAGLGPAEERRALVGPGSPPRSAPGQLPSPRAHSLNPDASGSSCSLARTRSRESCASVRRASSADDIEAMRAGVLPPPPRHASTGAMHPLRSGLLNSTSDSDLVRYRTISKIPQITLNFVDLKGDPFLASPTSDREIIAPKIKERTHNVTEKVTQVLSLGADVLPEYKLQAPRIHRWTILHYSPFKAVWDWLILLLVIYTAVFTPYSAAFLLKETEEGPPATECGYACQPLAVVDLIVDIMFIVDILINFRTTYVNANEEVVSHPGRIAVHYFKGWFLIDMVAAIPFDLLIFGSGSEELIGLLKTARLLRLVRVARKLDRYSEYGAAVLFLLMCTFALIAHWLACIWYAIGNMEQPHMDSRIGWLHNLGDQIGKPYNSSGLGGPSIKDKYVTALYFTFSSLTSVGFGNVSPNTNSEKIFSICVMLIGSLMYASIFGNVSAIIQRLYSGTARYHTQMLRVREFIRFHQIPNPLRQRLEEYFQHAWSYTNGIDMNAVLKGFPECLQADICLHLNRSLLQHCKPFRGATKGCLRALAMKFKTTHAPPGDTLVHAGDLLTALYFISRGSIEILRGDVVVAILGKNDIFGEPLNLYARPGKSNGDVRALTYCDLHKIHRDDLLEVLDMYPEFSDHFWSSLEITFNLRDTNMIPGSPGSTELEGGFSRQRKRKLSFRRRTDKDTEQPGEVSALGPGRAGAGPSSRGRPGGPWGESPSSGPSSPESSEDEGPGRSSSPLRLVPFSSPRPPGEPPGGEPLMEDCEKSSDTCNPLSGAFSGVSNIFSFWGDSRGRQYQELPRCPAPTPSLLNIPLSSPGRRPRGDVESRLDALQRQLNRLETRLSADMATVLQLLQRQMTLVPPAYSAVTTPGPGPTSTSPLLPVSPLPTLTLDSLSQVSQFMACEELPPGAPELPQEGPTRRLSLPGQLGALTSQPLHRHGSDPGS
# Assay: hERG-encoded potassium channel binding assay
# Conditions: HEK 293 cell membranes expressing the IKR channel, radioligand binding; read-out: hERG binding concentration
# Experimental: This assay, which is described in full detail in example 2, WO2005037052, determines the ability of a test compound to bind to the human ether-a-go-go-related-gene (hERG)-encoded potassium channel. The assay comprises the following steps: a) incubation of HEK 293 cell membranes expressing the IKR channel in the presence of radioligand 3,7-bis[2-(4-nitro[3,5-^3H]phenyl)ethyl]-3,7-diazabicyclo[3.3.1]nonane, in the presence or absence of a test compound; b) quantitation of specifically bound labelled compound in the presence or absence of a test compound; c) calculation of the inhibition of labelled compound binding by the test compound. Similar protocols to determine affinity for the human ether-a-go-go-related-gene (hERG)-encoded potassium channel have been described by Finlayson, K. et al. [Eur. J. Pharmacol. 2001, 412, 203 and Eur. J. Pharmacol. 2001, 430, 147].
row,Structure (SMILES),IC50
1,"CC(=O)Nc1cc(Cl)c(OCC(=O)O)cc1OC[C@@H](O)CN1CCC2(CC1)Cc1cc(Cl)ccc1O2 [Example 1, (4-(acetylamino)-2-chloro-5-{[(2S)-3-(5-chloro-1′H,3H-spiro[1-benzofuran-2,4′-piperidin]-1′-yl)-2-hydroxypropyl]oxy}phenoxy)acetic acid]",> 30000 nM
